Data published in patent publication US20240410013A1, “METHODS AND COMPOSITIONS FOR CLASSIFYING AND TREATING KIDNEY CANCER” (Genentech, Inc., priority 2021, published 2024).

Test system: previously untreated advanced renal cell carcinoma
Test: IMmotion151 (NCT02420821) Phase 3 randomized trial, atezolizumab plus bevacizumab versus sunitinib, clinical outcomes by biomarker subgroup
Type: in vivo, human
Text: IMmotion151 (NCT02420821) was a multicenter, open-label, Phase 3, randomized controlled trial of atezolizumab plus bevacizumab (n=454) versus sunitinib (n=461) in patients with previously untreated advanced RCC (Rini et al. Lancet. 393: 2404-2415 (2019)). The study design, methods, and primary clinical findings from IMmotion151 have been reported previously (Rini et al. Lancet. 393: 2404-2415 (2019)).
Briefly, previously untreated patients with unresectable locally advanced or metastatic renal cell carcinoma with any component of clear-cell or sarcomatoid histology were randomized to receive atezolizumab 1200 mg+bevacizumab 15 mg/kg (atezolizumab+bevacizumab) once every 3 weeks (n=454) or sunitinib 50 mg once daily (n=461; 4 weeks on, 2 weeks off). The co-primary endpoints were investigator-assessed progression-free survival (PFS) in patients with ≥1% expressing PD-L1 on immune cells (IC, PD-L1^+) and overall survival (OS) in the intent-to-treat (ITT) population.
IMmotion151 (NCT02420821) was a multicenter, open-label, Phase 3, randomized controlled trial of atezolizumab plus bevacizumab (n=454) vs. sunitinib (n=461) in patients with previously untreated advanced renal cell carcinoma (Rini et al. Lancet. 393: 2404-2415 (2019)).
RNA-seq data from the randomized Phase II trial IMmotion150 were processed as described above. Transcriptional signature scores were derived from T-effector and angiogenesis signatures (McDermott et al. Nat Med. 24: 749-757 (2018)) for each sample, and hazard ratios were calculated at various gene expression scores. Gene expression score cutoffs of 2.93 (40% prevalence) and 5.82 (50% prevalence) were defined for the T-effector and angiogenesis signatures in IMmotion150 based on a combination of prevalence and hazard ratio plateauing. These absolute thresholds were prospectively applied to the IMmotion151 data to classify tumors with high and low T-effector and angiogenesis signatures. Cox-proportional hazard regression models were fit to compare PFS in atezolizumab+bevacizumab or sunitinib-treated patients in gene expression high and low subsets.
All analyses were conducted using Rv3.6.1. Unless otherwise stated, all comparisons for continuous variables use the two-sided Mann-Whitney test (R function wilcox.test) for two groups and the Kruskal-Wallis test (R function kruskal.test) for more than two groups. Dunn's post-hoc test was applied with Benjamini-Hochberg multiple testing correction for pairwise comparisons. For categorical variables, Pearson's Chi-squared test with continuity correction was used (R function chisq.test). Unless otherwise stated, false discovery rate (FDR)-adjusted p-values are reported. *: p<0.05; **: p<0.01; ***: p<0.001. Survival analyses were conducted using Cox-proportional hazard models using the R survival package (v 3.1.7). Log-rank p-values were reported for survival analyses including more than two groups. For all boxplots, the horizontal line represents the median. The lower and upper hinges correspond to the first and third quartiles. The upper whisker extends from the hinge to the largest value no further than 1.5*IQR from the hinge (where IQR is the inter-quartile range, or distance between the first and third quartiles). The lower whisker extends from the hinge to the smallest value at most 1.5*IQR of the hinge.

[1] = tumors with CDKN2A/B alterations

SMILES: CCN(CC)CCNC(=O)c1c(C)[nH]c(/C=C2\C(=O)Nc3ccc(F)cc32)c1C [sunitinib]
- ORR (PBRM1 non-mutant tumors): 27%
- mPFS (PBRM1 non-mutant tumors): 6.9 months
- ORR (Proliferative cluster (#5)): 3.1%
- mPFS (Stromal/Proliferative cluster (printed #5)): 5.2 months
- objective response rate (ORR) (T-effector/Proliferative cluster (#4)): 19.4%
- mPFS (loss-of-function mutations in ARID1A): 6.8 months
- mPFS (loss-of-function mutations in KMT2C): 7.0 months
- Objective response rate (sRCC (sarcomatoid RCC) patients, RECIST 1.1): 14%
- mPFS (tumors harboring PBRM1 mutations): 11.2 months
- ORR [1]: 20%
- complete responses [1]: 0%
- mPFS [1]: 4.1 months
- PFS hazard ratio, Angiogenesis signature high vs low (within sunitinib treatment arm, 95% CI 0.47, 0.75): 0.59
- PFS hazard ratio, PBRM1 mutant vs non-mutant tumors (within sunitinib-treated patients, 95% CI 0.51, 0.87): 0.67
